This is an account of results in patent US5268282A, “Cyclic FR-900520 microbial biotransformation agent” (Merck & Co., Inc., priority 1992, dated 1993).

“Also recorded” adds a separate entry of the source.

The conditions of data set [1]: immunosuppressant; EPO Publication No. 0184162; cited from earlier work.
Data set [2] concerns splenic T-cells (mouse T lymphocytes). Kind of data set: T-cell proliferation assay (ionomycin + PMA induced T-cell stimulation, tritiated thymidine uptake). Format: cell-based, mouse (C57Bl/6). As to the method:
The principle of this assay is to measure the proliferation of mouse T lymphocytes stimulated with the combination of ionomycin plus PMA.
Cells were pelleted by centrifugation at 1500 rpm for 8 minutes. Contaminating red cells were removed by treating the pellet with ammonium chloride lysing buffer (GIBCO) for 2 minutes at 4° C. Cold medium was added and cells were again centrifuged at 1500 rpm for 8 minutes. T lymphocytes were then isolated by separation of the cell suspension on nylon wool columns as follows: Nylon wool columns were prepared by packing approximately 4 grams of washed and dried nylon wool into 20 ml plastic syringes. The columns were sterilized by autoclaving at 250° F. for 30 minutes. Nylon wool columns were wetted with warm (37° C.) culture medium and rinsed with the same medium. Washed spleen cells resuspended in warm medium were slowly applied to the nylon wool. The columns were then incubated in an upright position at 37° C. for 1 hour. Non-adherent T lymphocytes were eluted from the columns with warm culture medium and the cell suspensions were spun as above.
The cell suspension was immediately distributed into 96 well flat-bottom microculture plates (Costar) at 200 μl/well. […] Radioactivity of filter discs corresponding to individual wells was measured by standard liquid scintillation counting methods (Betacounter). Mean counts per minute of replicate wells were calculated and the results expressed as percent inhibition of tritiated thymidine uptake (proliferation) as follows: [formula]

Data set [3] is described as follows: Solubility (physical characteristics). The format is physicochemical. The following applies: methanol.

In the case of `C=CC[C@@H]1/C=C(\C)C[C@H](C)C[C@H](OC)[C@H]2O[C@@](O)(C(=O)C(=O)N3CCCC[C@H]3C(=O)O[C@H](/C(C)=C/[C@@H]3CC[C@@H](O)[C@H](OC)C3)[C@H](C)[C@@H](O)CC1=O)[C@H](C)C[C@@H]2OC` [FK-506], the “times more effective than cyclosporin (reputed)” value in data set [1] is reported as 100 times.

As a reminder, the IC50 is the concentration that inhibits the measured activity by half. Turning to `CC[C@@H]1C=C2COC1(O)C[C@H](O)[C@@H](C)[C@@H](/C(C)=C/[C@@H]1CC[C@@H](O)[C@H](OC)C1)OC(=O)[C@@H]1CCCCN1C(=O)C(=O)[C@]1(O)O[C@H]([C@@H](OC)C[C@@H](C)C2)[C@@H](OC)C[C@H]1C` [Compound I], the “Inhibition of T-cell proliferation upon addition of IL2” value in data set [2] (50 units/ml recombinant IL2 added at the initiation of culture) is given as “reversed”. In addition, in data set [2] (Mus musculus, T-cell, based on a series of 5 additional experiments, read-out: IC50, generally in the range of), the half-inhibitory concentration (IC50) was 1.57 to 5.2 ng/mL. Further, in data set [2] (result in words), the “immunosuppressant activity (inhibition of T-cell activation / T-cell proliferation assay)” value was “positive inhibition of T-cell activation; also recorded: positive immunosuppressive activity”. The Solubility entry in data set [3] was “Solubility in methanol”.

What is called inhibition is the share of the control response that was lost under treatment. With `C=CCC1C=C(C)CC(C)CC(OC)C2OC(O)(C(=O)C(=O)N3CCCCC3C(=O)OC(C(C)=CC3CCC(O)C(OC)C3)C(C)C(O)CC1=O)C(C)CC2OC` (stereo not drawn) [FR 900506, reference compound], the inhibition at 0.01 µg/mL in data set [2] (Mus musculus, T-cell, read-out: inhibition by the standard) came out at 99%.
